Measurements taken from patent US20230365514A1, “MACROCYCLIC COMPOUNDS” (NOVO NORDISK RESEARCH CENTRE OXFORD LIMITED, priority 2017, published 2023).
Several values for one entry are separate records, joined by “and”; a condition that tells them apart may be missing. Identical values can stand only once.

Legend:
[1] = 1H NMR titration with D-glucose; type: binding; conditions: D2O; buffer differs by receptor (FIGS. 68-73, 77) (Table 6)
Method: ^1H-NMR titrations were performed on a Varian VNMR cryogenically cooled S600 spectrometer. Solutions of saccharides in D2O (99.9%), containing receptor at a known concentration to be used in the experiment, were prepared and allowed to equilibrate overnight before use if necessary. Aliquots were then added to an NMR tube containing a known concentration of receptor solution (typically 100 µM - 400 µM). The receptor concentration was therefore held constant while the carbohydrate concentration was increased. The sample tube was shaken after each addition and ^1H-NMR spectra were acquired at 298 K.
^1H-NMR titrations were performed on a Varian VNMR cryogenically cooled S600 spectrometer. Solutions of saccharides in D2O (99.9%), containing receptor at a known concentration to be used in the experiment, were prepared and allowed to equilibrate overnight before use if necessary. Aliquots were then added to an NMR tube containing a known concentration of receptor solution (typically 50 µM - 250 µM). The receptor concentration was therefore held constant while the carbohydrate concentration was increased. The sample tube was shaken after each addition, centrifuged and ^1H-NMR spectra were acquired at 298 K.
If the receptor bound saccharide slower than the NMR sample rate (“slow exchange”), the Ka was determined by analysing the NMR integral of a peak assigned to the Host-Guest complex. The variable X was defined as the integral of an isolated resonance of the complex (typically in the aromatic region) divided by the integral of all the related resonances (typically the whole aromatic region). As X is proportional to fraction of host in the bound state, the change in X could be plotted as a function of the guest concentration to give a curve which could be fitted to a 1:1 binding model to yield the association constant Ka. Mathematically, the fitting process is essentially identical to that employed for binding with fast exchange, except that the integral of a peak due to the complex replaces the chemical shift of a peak due to bound + unbound receptor. The calculation was performed using a non-linear least squares curve-fitting programme implemented within Excel. The programme yields binding constants Ka and limiting X (Xlim) as output. An estimated error for Ka was obtained from individual data points by assuming the determined Ka and Xlim.

[2] = ITC titration with D-glucose; type: binding; conditions: d-glucose in 10 mM phosphate buffer, 298 K (Table 6)
Method: ITC experiments were carried out at 298 K. Saccharide solutions were prepared in HPLC-grade water with 10 mM phosphate buffer solution (pH 7.4) and allowed to equilibrate overnight if necessary. The sample cell was charged with a known concentration of receptor solution in HPLC-grade water with 10 mM phosphate buffer solution at pH 7.4 (typically 50 µM - 200 µM). Then, aliquots (typically 1.0 µL) of carbohydrate solution were added and the evolution of heat was followed as a function of time. Heats of dilution were measured by injecting the same carbohydrate solution into HPLC-grade water with 10 mM phosphate buffer solution at pH 7.4, using identical conditions. For every addition, the heat of dilution was subtracted from the heat of binding using a MicroCal software programme implemented in ORIGIN 7.0. This gave an XY matrix of heat vs. total guest concentration. This matrix was then imported into a specially written Excel programme to fit the data to a 1:1 binding model to give a Ka. ΔG can be derived from Ka and thus ΔS can be derived from ΔH and ΔG using common thermodynamic equations. […] This method consistently produced more accurate fits than fitting the data to an S-curve, as in the MicroCal software (S-curves are typically not observed for binding constants below ~104 - 105 M^-1).

Structure (SMILES)	Binding affinity for D-glucose (Ka), Determined by 1H-NMR [1]	Binding affinity for D-glucose (Ka), Determined by ITC [2]
CCc1c2c(CC)c3c(CC)c1CNC(=O)Nc1cc(C(=O)[O-])c(C(=O)[O-])cc1NC(=O)NCc1c(CC)c(c(CC)c(c1CC)CNC(=O)Nc1cc(C(=O)[O-])c(C(=O)[O-])cc1NC(=O)NC3)CNC(=O)Nc1cc(C(=O)[O-])c(C(=O)[O-])cc1NC(=O)NC2.[Na+].[Na+].[Na+].[Na+].[Na+].[Na+] [Receptor 11, Hexa-carboxylate Hexa-urea Macrocycle]	~ 2000 M^-1	
CCc1c2c(CC)c3c(CC)c1CNC(=O)Nc1cc(C(=O)NC(CCC(=O)NC(CCC(=O)[O-])(CCC(=O)[O-])CCC(=O)[O-])(CCC(=O)NC(CCC(=O)[O-])(CCC(=O)[O-])CCC(=O)[O-])CCC(=O)NC(CCC(=O)[O-])(CCC(=O)[O-])CCC(=O)[O-])ccc1NC(=O)NCc1c(OC)c(c(OC)c(c1OC)CNC(=O)Nc1ccc(C(=O)NC(CCC(=O)NC(CCC(=O)[O-])(CCC(=O)[O-])CCC(=O)[O-])(CCC(=O)NC(CCC(=O)[O-])(CCC(=O)[O-])CCC(=O)[O-])CCC(=O)NC(CCC(=O)[O-])(CCC(=O)[O-])CCC(=O)[O-])cc1NC(=O)NC3)CNC(=O)Nc1ccc(C(=O)NC(CCC(=O)NC(CCC(=O)[O-])(CCC(=O)[O-])CCC(=O)[O-])(CCC(=O)NC(CCC(=O)[O-])(CCC(=O)[O-])CCC(=O)[O-])CCC(=O)NC(CCC(=O)[O-])(CCC(=O)[O-])CCC(=O)[O-])cc1NC(=O)NC2.[Na+].[Na+].[Na+].[Na+].[Na+].[Na+].[Na+].[Na+].[Na+].[Na+].[Na+].[Na+].[Na+].[Na+].[Na+].[Na+].[Na+].[Na+].[Na+].[Na+].[Na+].[Na+].[Na+].[Na+].[Na+].[Na+].[Na+] [Receptor 13]		1310 M⁻¹ and 1310 ± 33 M⁻¹
CCc1c2c(CC)c3c(CC)c1CNC(=O)Nc1ccc(C(=O)NC(CCC(=O)NC(CCC(=O)[O-])(CCC(=O)[O-])CCC(=O)[O-])(CCC(=O)NC(CCC(=O)[O-])(CCC(=O)[O-])CCC(=O)[O-])CCC(=O)NC(CCC(=O)[O-])(CCC(=O)[O-])CCC(=O)[O-])cc1NC(=O)NCc1c(C)c(c(C)c(c1C)CNC(=O)Nc1cc(C(=O)NC(CCC(=O)NC(CCC(=O)[O-])(CCC(=O)[O-])CCC(=O)[O-])(CCC(=O)NC(CCC(=O)[O-])(CCC(=O)[O-])CCC(=O)[O-])CCC(=O)NC(CCC(=O)[O-])(CCC(=O)[O-])CCC(=O)[O-])ccc1NC(=O)NC3)CNC(=O)Nc1cc(C(=O)NC(CCC(=O)NC(CCC(=O)[O-])(CCC(=O)[O-])CCC(=O)[O-])(CCC(=O)NC(CCC(=O)[O-])(CCC(=O)[O-])CCC(=O)[O-])CCC(=O)NC(CCC(=O)[O-])(CCC(=O)[O-])CCC(=O)[O-])ccc1NC(=O)NC2.[Na+].[Na+].[Na+].[Na+].[Na+].[Na+].[Na+].[Na+].[Na+].[Na+].[Na+].[Na+].[Na+].[Na+].[Na+].[Na+].[Na+].[Na+].[Na+].[Na+].[Na+].[Na+].[Na+].[Na+].[Na+].[Na+].[Na+] [Receptor 14]	14926 ± 1566 M⁻¹	
Cc1c2c(C)c3c(C)c1CNC(=O)Nc1ccc(C(=O)NC(CCC(=O)NC(CCC(=O)O)(CCC(=O)O)CCC(=O)O)(CCC(=O)NC(CCC(=O)O)(CCC(=O)O)CCC(=O)O)CCC(=O)NC(CCC(=O)O)(CCC(=O)O)CCC(=O)O)cc1NC(=O)NCc1c(C)c(c(C)c(c1C)CNC(=O)Nc1cc(C(=O)NC(CCC(=O)NC(CCC(=O)O)(CCC(=O)O)CCC(=O)O)(CCC(=O)NC(CCC(=O)O)(CCC(=O)O)CCC(=O)O)CCC(=O)NC(CCC(=O)O)(CCC(=O)O)CCC(=O)O)ccc1NC(=O)NC3)CNC(=O)Nc1cc(C(=O)NC(CCC(=O)NC(CCC(=O)O)(CCC(=O)O)CCC(=O)O)(CCC(=O)NC(CCC(=O)O)(CCC(=O)O)CCC(=O)O)CCC(=O)NC(CCC(=O)O)(CCC(=O)O)CCC(=O)O)ccc1NC(=O)NC2 [Receptor 8]		4210 M⁻¹ and 4210 ± 73 M⁻¹
CCc1c2c(CC)c3c(CC)c1CNC(=O)Nc1ccc(C(=O)NCCOCCOCCOCCN)cc1NC(=O)NCc1c(CC)c(c(CC)c(c1CC)CNC(=O)Nc1cc(C(=O)NCCOCCOCCOCCN)ccc1NC(=O)NC3)CNC(=O)Nc1cc(C(=O)NCCOCCOCCOCCN)ccc1NC(=O)NC2 [Receptor 10]	481 ± 57 M⁻¹	
